Assay results as given in US20240132475A1, “SUBSTITUTED PYRAZOLYL COMPOUNDS AS MALT-1 INHIBITORS” (AURIGENE ONCOLOGY LIMITED, priority 2021, published 2024).
pIC50: −log10 of the molar value.

Target: T1, MALT-1 (Isoform 1) (Homo sapiens, UniProt Q9UDY8)
T1 construct: using recombinant MALT-1 (Isoform 1, aa-840) generated in house; made in house
T1 sequence (Q9UDY8 1-824): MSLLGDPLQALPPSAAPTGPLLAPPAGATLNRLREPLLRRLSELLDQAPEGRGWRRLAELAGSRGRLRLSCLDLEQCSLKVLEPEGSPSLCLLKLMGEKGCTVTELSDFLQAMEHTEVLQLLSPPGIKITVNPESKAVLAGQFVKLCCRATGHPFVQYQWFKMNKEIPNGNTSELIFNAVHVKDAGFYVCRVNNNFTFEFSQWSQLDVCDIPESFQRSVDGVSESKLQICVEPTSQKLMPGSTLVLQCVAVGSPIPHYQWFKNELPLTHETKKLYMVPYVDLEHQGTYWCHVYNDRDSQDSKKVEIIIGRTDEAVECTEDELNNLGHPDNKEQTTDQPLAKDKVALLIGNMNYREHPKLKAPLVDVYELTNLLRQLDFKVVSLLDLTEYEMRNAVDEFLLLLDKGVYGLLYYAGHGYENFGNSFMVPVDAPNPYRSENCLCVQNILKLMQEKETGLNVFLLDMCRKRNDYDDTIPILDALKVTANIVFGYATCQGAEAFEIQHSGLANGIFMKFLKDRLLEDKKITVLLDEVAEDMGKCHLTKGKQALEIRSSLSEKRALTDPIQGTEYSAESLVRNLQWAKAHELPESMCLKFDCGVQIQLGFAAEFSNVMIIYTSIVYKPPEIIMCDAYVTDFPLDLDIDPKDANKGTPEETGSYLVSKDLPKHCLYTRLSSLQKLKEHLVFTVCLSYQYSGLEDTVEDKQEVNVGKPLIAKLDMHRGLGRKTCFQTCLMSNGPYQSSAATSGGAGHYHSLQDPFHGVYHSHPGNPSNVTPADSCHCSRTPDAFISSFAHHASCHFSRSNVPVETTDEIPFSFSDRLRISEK
Experiment: MALT-1 (Isoform 1) enzyme fluorescent biochemical assay
Details: for inhibition at 10 µM: test compound 10 μM (stated in the cell), read-out: Percent Inhibition (10 μM); for inhibition at 10 µM / inhibition at 1 µM / Percent Inhibition (1 μM): recombinant MALT-1 1.5 nM; for pIC50: dose-response, sigmoidal curve fit, reported as groups A, B, C; for inhibition at 1 µM / Percent Inhibition (1 μM): test compound 1 μM; for inhibition at 1 µM: read-out: Percent Inhibition (1 μM)
Procedure: The potency of compounds to inhibit MALT-1 (Isoform 1) enzyme was tested in a Fluorescent assay using recombinant MALT-1 (Isoform 1, aa-840) generated in house. The assay buffer was 50 mM HEPES (pH 7.5), 100 mM NaCl, 10 mM DTT, 1 mM EDTA, 0.9 M sodium citrate, 0.01% CHAPS. 1.5 nM of MALT-1 enzyme was incubated with test compounds ([…]) (1% DMSO) in the presence of buffer for 30 minutes at 30° C. The protease reaction was initiated by adding […] of AC-LRSR-MAC (Peptide International, USA) substrate and incubated for 240 min. After 240 min incubation, fluorescence emission of the samples at 460 nm was measured at an excitation of 355 nm. The percent inhibition was calculated using the following formula: […]. IC50 values were determined by fitting the dose-response data to sigmoidal curve fitting equation using Graph pad prism software V8.
ND represents Not Determined.

Structure (SMILES)	inhibition at 10 µM [%]	pIC50	inhibition at 1 µM [%]	Percent Inhibition (1 μM) [%]
COc1cccc(Cn2ncc(C(=O)Nc3cnc(-n4nccn4)c(C#N)c3)c2C(F)(F)F)c1 [Compound 17, N-(5-cyano-6-(2H-1,2,3-triazol-2-yl)pyridin-3-y1)-1-(3-methoxybenzyl)-5-(trifluoromethyl)-1H-pyrazole-4-carboxamide]	48	–	–	–
CC(c1cccc(Cl)c1)n1ncc(C(=O)Nc2cnc(-n3nccn3)c(Cl)c2)c1C(F)(F)F (stereo not drawn) [Compound 49, N-(5-chloro-6-(2H-1,2,3-triazol-2-yl)pyridin-3-yl)-1-(1-(3-chlorophenyl)ethyl)-5-(trifluoromethyl)-1H-pyrazole-4-carboxamide]	–	6.00 to 6.60	88	–
COc1ncc(NC(=O)c2cnn(Cc3cccc(F)c3Cl)c2C(F)(F)F)cc1Cl [Compound 37, 1-(2-chloro-3-fluorobenzyl)-N-(5-chloro-6-methoxypyridin-3-y1)-5-(trifluoromethyl)-1H-pyrazole-4-carboxamide]	–	6.00 to 6.60	81	–
CC(c1cccc(F)c1)n1ncc(C(=O)Nc2cnc(-n3nccn3)c(Cl)c2)c1C(F)(F)F (racemic) [Compound 4, N-(5-chloro-6-(2H-1,2,3-triazol-2-yl)pyridin-3-yl)-1-(1-(3-fluorophenyl)ethyl)-5-(trifluoromethyl)-1H-pyrazole-4-carboxamide]	–	6.00 to 6.60	77	–
CC(C)C(c1cccc(F)c1)n1ncc(C(=O)Nc2cnc(-n3nccn3)c(C#N)c2)c1C(F)(F)F (stereo not drawn) [Compound 48, N-(5-cyano-6-(2H-1,2,3-triazol-2-yl)pyridin-3-yl)-1-(1-(3-fluorophenyl)-2-methylpropyl)-5-(trifluoromethyl)-1H-pyrazole-4-carboxamide]	–	< 6.00	23	–
N#Cc1cc(NC(=O)c2cnn(Cc3cccc(F)c3Cl)c2C(F)(F)F)cnc1-c1ccsc1 [Compound 55, 1-(2-chloro-3-fluorobenzyl)-N-(5-cyano-6-(thiophen-3-y1)pyridin-3-y1)-5-(trifluoromethyl)-1H-pyrazole-4-carboxamide]	–	6.00 to 6.60	63	–
N#Cc1cc(NC(=O)c2cnn(Cc3cccc(F)c3Cl)c2C(F)(F)F)cnc1-c1ccoc1 [Compound 54, 1-(2-chloro-3-fluorobenzyl)-N-(5-cyano-6-(furan-3-yl)pyridin-3-y1)-5-(trifluoromethyl)-1H-pyrazole-4-carboxamide]	–	6.00 to 6.60	77	–
O=C(Nc1cnc(-n2nccn2)c(Cl)c1)c1cnn(Cc2cccc(F)c2Cl)c1C(F)(F)F [Compound 34, 1-(2-chloro-3-fluorobenzy1)-N-(5-chloro-6-(2H-1,2,3-triazol-2-yl)pyridin-3-yl)-5-(trifluoromethyl)-1H-pyrazole-4-carboxamide]	–	> 6.60	99	–
O=C(Nc1ccnc(C(F)(F)F)c1)c1cnn(Cc2cccc(F)c2)c1C(F)(F)F [Compound 19, 1-(3-fluorobenzyl)-5-(trifluoromethyl)-N-(2-(trifluoromethyl)pyridin-4-yl)-1H-pyrazole-4-carboxamide]	–	< 6.00	22	–
CC(c1cccc(F)c1)n1ncc(C(=O)Nc2cnc(-n3nccn3)c(C#N)c2)c1C(F)(F)F (racemic) [Compound 3, N-(5-cyano-6-(2H-1,2,3-triazol-2-yl)pyridin-3-yl)-1-(1-(3-fluorophenyl)ethyl)-5-(trifluoromethyl)-1H-pyrazole-4-carboxamide]	–	> 6.60	83	–
CC(c1cccc(F)c1)n1ncc(C(=O)Nc2cnc(-n3nccn3)c(C#N)c2)c1C(F)(F)F (single isomer, unassigned) [Compound 3a]	–	6.00 to 6.60	–	76
N#Cc1cccc(Cn2ncc(C(=O)Nc3cnc(-n4nccn4)c(C#N)c3)c2C(F)(F)F)c1 [Compound 12, N-(5-cyano-6-(2H-1,2,3-triazol-2-yl)pyridin-3-y1)-1-(3-cyanobenzyl)-5-(trifluoromethyl)-1H-pyrazole-4-carboxamide]	–	> 6.60	98	–
Cc1c(F)cccc1C(C)n1ncc(C(=O)Nc2cnc(-n3nccn3)c(C#N)c2)c1C(F)(F)F (stereo not drawn) [Compound 52, N-(5-cyano-6-(2H-1,2,3-triazol-2-yl)pyridin-3-yl)-1-(1-(3-fluoro-2-methylphenyl)ethyl)-5-(trifluoromethyl)-1H-pyrazole-4-carboxamide]	–	> 6.60	100	–
CC(c1cccc(F)c1)n1ncc(C(=O)Nc2cnc(-n3nccn3)c(Cl)c2)c1C(F)(F)F (single isomer, unassigned) [Compound 4b]	–	> 6.60	94	–
CC(c1ccccc1)n1ncc(C(=O)Nc2cnc(-n3nccn3)c(Cl)c2)c1C(F)(F)F (racemic) [Compound 5, N-(5-chloro-6-(2H-1,2,3-triazol-2-yl)pyridin-3-yl)-1-(1-phenylethyl)-5-(trifluoromethyl)-1H-pyrazole-4-carboxamide]	–	6.00 to 6.60	89	–
CC(c1cccc(F)c1)n1ncc(C(=O)Nc2cnc(-n3nccn3)c(Cl)c2)c1C(F)(F)F (single isomer, unassigned) [Compound 4a]	83	< 6.00	–	–
O=C(Nc1ccnc(C(O)C(F)(F)F)c1)c1cnn(Cc2cccc(F)c2Cl)c1C(F)(F)F (stereo not drawn) [Compound 47, 1-(2-chloro-3-fluorobenzyl)-N-(2-(2,2,2-trifluoro-1-hydroxyethyl)pyridin-4-y1)-5-(trifluoromethyl)-1H-pyrazole-4-carboxamide]	33	–	–	–
CC(c1cccc(F)c1)n1ncc(C(=O)Nc2cnc(-n3nccn3)c(C#N)c2)c1C(F)(F)F (single isomer, unassigned) [Compound 3b]	–	> 6.60	–	100
O=C(Nc1ccnc(C(F)(F)F)c1)c1cnn(Cc2cccc(F)c2Cl)c1C(F)(F)F [Compound 40, 1-(2-chloro-3-fluorobenzyl)-5-(trifluoromethyl)-N-(2-(trifluoromethyl)pyridin-4-y1)-1H-pyrazole-4-carboxamide]	–	6.00 to 6.60	75	–
N#Cc1cc(NC(=O)c2cnn(Cc3ccncc3)c2C(F)(F)F)cnc1-n1nccn1 [Compound 13, N-(5-cyano-6-(2H-1,2,3-triazol-2-yl)pyridin-3-yl)-1-(pyridin-4-ylmethyl)-5-(trifluoromethyl)-1H-pyrazole-4-carboxamide]	–	< 6.00	40	–
CC(c1ccccc1)n1ncc(C(=O)Nc2cnc(-n3nccn3)c(C#N)c2)c1C(F)(F)F (single isomer, unassigned) [Compound 2a]	–	> 6.60	–	99
CC(c1ccccc1)n1ncc(C(=O)Nc2cnc(-n3nccn3)c(C#N)c2)c1C(F)(F)F (single isomer, unassigned) [Compound 2b]	–	6.00 to 6.60	–	57
N#Cc1cc(NC(=O)c2cnn(Cc3cccc(F)c3C(F)(F)F)c2C(F)(F)F)cnc1-n1nccn1 [Compound 33, N-(5-cyano-6-(2H-1,2,3-triazol-2-yl)pyridin-3-y1)-1-(3-fluoro-2-(trifluoromethyl)benzy1)-5-(trifluoromethyl)-1H-pyrazole-4-carboxamide]	–	> 6.60	99	–
N#Cc1cc(NC(=O)c2cnn(Cc3cccc(F)c3F)c2C(F)(F)F)cnc1-n1nccn1 [Compound 27, N-(5-cyano-6-(2H-1,2,3-triazol-2-yl)pyridin-3-y1)-1-(2,3-difluorobenzyl)-5-(trifluoromethyl)-1H-pyrazole-4-carboxamide]	–	> 6.60	100	–
N#Cc1cc(NC(=O)c2cnn(Cc3ccccc3Cl)c2C(F)(F)F)cnc1-n1nccn1 [Compound 20, 1-(2-chlorobenzyl)-N-(5-cyano-6-(2H-1,2,3-triazol-2-y1)pyridin-3-yl)-5-(trifluoromethyl)-1H-pyrazole-4-carboxamide]	–	< 6.00	46	–
